We go through 21 compounds from patent publication US20210300940A1 (Merck Patent GmbH, priority 2018, published 2021).

For one assay, the target named is T1, TLR8 (Homo sapiens, UniProt Q9NR97).
T1 construct: expressed in transfected cells; host or cells: HEK/293 reporter cells (NF-kB luciferase)
T1 sequence (Q9NR97 27-1041): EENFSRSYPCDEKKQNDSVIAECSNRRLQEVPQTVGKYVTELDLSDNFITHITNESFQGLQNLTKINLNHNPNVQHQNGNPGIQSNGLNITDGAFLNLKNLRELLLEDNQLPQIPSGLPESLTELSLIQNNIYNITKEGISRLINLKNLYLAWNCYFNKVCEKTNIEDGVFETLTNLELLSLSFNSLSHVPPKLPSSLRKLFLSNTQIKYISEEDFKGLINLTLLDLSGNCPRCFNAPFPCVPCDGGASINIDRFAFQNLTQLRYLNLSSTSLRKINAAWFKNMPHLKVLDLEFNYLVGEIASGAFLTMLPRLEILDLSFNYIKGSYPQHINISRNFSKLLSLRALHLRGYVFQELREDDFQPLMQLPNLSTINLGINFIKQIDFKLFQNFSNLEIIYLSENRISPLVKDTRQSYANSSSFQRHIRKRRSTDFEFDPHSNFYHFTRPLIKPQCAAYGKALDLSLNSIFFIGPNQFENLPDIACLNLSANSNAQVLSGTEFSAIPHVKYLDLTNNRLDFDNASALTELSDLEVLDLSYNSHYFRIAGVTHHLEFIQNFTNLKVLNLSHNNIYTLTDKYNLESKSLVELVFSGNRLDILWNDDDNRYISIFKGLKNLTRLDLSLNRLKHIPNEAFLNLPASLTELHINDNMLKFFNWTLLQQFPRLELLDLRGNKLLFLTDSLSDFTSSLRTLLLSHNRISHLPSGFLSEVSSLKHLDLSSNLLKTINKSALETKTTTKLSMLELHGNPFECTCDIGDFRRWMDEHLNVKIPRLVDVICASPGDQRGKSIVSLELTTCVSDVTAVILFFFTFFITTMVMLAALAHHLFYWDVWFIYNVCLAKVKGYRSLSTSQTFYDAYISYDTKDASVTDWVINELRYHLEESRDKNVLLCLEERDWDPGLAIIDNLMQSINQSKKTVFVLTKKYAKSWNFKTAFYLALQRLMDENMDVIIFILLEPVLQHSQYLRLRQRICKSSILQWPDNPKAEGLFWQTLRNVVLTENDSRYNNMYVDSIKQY
The assay is described as follows: HEK/293 TLR8 Cell Assay. It counts as cell-based. Conditions: HEK cells, R848 agonist 30 uM final concentration, Steady-Glo readout; read-out: TLR8 potency.

In a further assay the target is T2, TLR7 (Homo sapiens, UniProt Q9NYK1).
T2 construct: expressed in transfected cells; host or cells: HEK/293 cells carrying TLR7 and an NF-kB luciferase reporter
T2 sequence (Q9NYK1 27-1049): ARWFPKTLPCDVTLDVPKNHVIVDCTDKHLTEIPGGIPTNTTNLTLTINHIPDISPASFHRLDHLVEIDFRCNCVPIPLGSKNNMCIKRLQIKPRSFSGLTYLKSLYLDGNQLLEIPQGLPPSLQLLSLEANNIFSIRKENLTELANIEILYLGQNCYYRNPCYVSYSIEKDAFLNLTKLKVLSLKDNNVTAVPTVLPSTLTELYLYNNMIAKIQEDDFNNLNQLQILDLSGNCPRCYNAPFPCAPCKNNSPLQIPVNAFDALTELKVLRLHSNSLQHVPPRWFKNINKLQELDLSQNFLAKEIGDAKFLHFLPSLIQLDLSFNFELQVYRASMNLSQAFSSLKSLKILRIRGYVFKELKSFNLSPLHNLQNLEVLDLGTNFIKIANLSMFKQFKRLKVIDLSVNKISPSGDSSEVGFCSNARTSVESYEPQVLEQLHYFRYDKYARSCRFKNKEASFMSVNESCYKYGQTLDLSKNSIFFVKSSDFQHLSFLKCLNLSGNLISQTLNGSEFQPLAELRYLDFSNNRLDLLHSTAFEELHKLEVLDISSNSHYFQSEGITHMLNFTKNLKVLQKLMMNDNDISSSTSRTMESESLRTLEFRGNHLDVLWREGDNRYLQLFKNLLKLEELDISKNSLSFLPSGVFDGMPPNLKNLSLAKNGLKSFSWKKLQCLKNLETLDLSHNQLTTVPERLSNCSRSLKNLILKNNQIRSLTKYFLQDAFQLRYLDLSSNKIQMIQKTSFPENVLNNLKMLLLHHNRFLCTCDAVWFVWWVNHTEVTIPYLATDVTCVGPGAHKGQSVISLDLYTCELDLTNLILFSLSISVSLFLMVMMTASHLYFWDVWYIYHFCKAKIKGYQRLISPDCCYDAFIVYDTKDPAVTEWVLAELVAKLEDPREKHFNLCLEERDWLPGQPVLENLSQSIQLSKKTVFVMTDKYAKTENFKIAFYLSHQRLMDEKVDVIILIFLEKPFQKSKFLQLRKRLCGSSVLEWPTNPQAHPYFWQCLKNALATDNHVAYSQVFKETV
The experiment in a line: HEK/293 TLR7 Cell Assay. In kind it is cell-based. Conditions: TLR7/NFKb HEK cells, R848 agonist 10 uM final concentration, Steady-Glo readout; read-out: TLR7 potency. In short, it runs like this:
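Compounds added to HEK cells expressing TLR7 with an NFκB reporter 30 min ahead of 10 uM R848 challenge; luciferase signal (Steady-Glo) measured after 5 h, cells having been seeded 24 h earlier at 5000 per well.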

Structures are written as SMILES.

Take `C[C@H]1C[C@@H](NC(=O)CN(CCN)CCO)CN(c2ccc(C#N)c3nccnc23)C1` [Example 150, 2-[(2-Amino-ethyl)-(2-hydroxy-ethyl)-amino]-N-[(3R,5S)-1-(8-cyano-quinoxalin-5-yl)-5-methyl-piperidin-3-yl]-acetamide]: the IC50 on TLR8 and on TLR7 was under 0.075 µM throughout.
Take `C[C@@H]1CN(c2ccc(C#N)c3nccnc23)C[C@H](C(=O)NC2CN(CC(F)(F)F)C2)O1` [Example 254, (2R,6R)-4-(8-Cyano-quinoxalin-5-yl)-6-methyl-morpholine-2-carboxylic acid [1-(2,2,2-trifluoro-ethyl)-azetidin-3-yl]-amide]: the figures for the IC50 at TLR8 and on TLR7 were over 0.15 µM and under 0.075 µM, respectively.
`Cc1ccc(N2C[C@@H](C)C[C@@H](n3ccnc3)C2)c2cccnc12` [Example 159, 5-[(3R,5S)-3-(1H-imidazol-1-yl)-5-methylpiperidin-1-yl]-8-methylquinoline]: the figures for the IC50 on TLR8 and on TLR7 were under 0.075 µM and over 0.15 µM, respectively.
The corresponding values for `C[C@H]1C[C@@H](NC(=O)[C@@H](N)[C@@H](C)O)CN(c2ccc(C(F)(F)F)c3ncccc23)C1` [Example 169, (2S,3R)-2-Amino-3-hydroxy-N-[(3R,5S)-5-methyl-1-(8-trifluoromethyl-quinolin-5-yl)-piperidin-3-yl]-butyramide] are under 0.075 µM and under 0.075 µM.
On to `C[C@@H]1CN(c2ccc(C#N)c3nccnc23)C[C@H](CN2CC(O)C2)O1` [Example 216, 8-[(2S,6R)-2-(3-Hydroxy-azetidin-1-ylmethyl)-6-methyl-morpholin-4-yl]-quinoxaline-5-carbonitrile], for which the figures for the IC50 on TLR8 and on TLR7 were over 0.15 µM and under 0.075 µM, respectively.
In the case of `N#Cc1ncc(N2C[C@@H](C(=O)NC[C@]3(F)CCNC3)O[C@@H](C(F)(F)F)C2)c2cccnc12` (single isomer, unassigned) [Example 319], the IC50 at TLR8 and on TLR7 was under 0.075 µM each time.
`C[C@@H]1CN(c2ccc(C#N)c3nccnc23)C[C@H](C(=O)NC2CCNCC2(F)F)O1` (stereo partly drawn) [Example 289, (2R,6R)-4-(8-Cyano-quinoxalin-5-yl)-6-methyl-morpholine-2-carboxylic acid (3,3-difluoro-piperidin-4-yl)-amide]: the IC50 at TLR8 and at TLR7 was under 0.075 µM each time.
Take `CN1CC[C@@](F)(CNC(=O)[C@H]2CN(c3cnc(C#N)c4ncccc34)C[C@@H](C(F)(F)F)O2)C1` (single isomer, unassigned) [Example 350]: the IC50 at TLR8 and on TLR7 was over 0.15 µM throughout.
Regarding `C[C@H]1C[C@@H](NC(=O)CN2CCN(C)CC2)CN(c2ccc(C#N)c3ncncc23)C1` [Example 89, N-[(3R,5S)-1-(8-cyanoquinazolin-5-yl)-5-methylpiperidin-3-yl]-2-(4-methylpiperazin-1-yl)acetamide], the IC50 at TLR8 was over 0.15 µM; on TLR7, under 0.075 µM.
The corresponding values for `CC(C(=O)N[C@@H]1C[C@H](C)CN(c2ccc(C(F)(F)F)c3ncccc23)C1)N1CCN(C)CC1` (single isomer, unassigned) [Example 92] are under 0.075 µM and under 0.075 µM.
The corresponding values for `C[C@H]1C[C@@H](NC(=O)C2CCCCN2)CN(c2ccc(C(F)(F)F)c3ncccc23)C1` (stereo partly drawn) [Example 181, Piperidine-2-carboxylic acid [(3R,5S)-5-methyl-1-(8-trifluoromethyl-quinolin-5-yl)-piperidin-3-yl]-amide] are under 0.075 µM and under 0.075 µM.
The corresponding values for `Cc1c(F)cc(N2C[C@@H](C)C[C@@H](NC(=O)CC3(O)CCN(C)CC3)C2)c2cccnc12` [Example 69, N-[(3R,5S)-1-(7-fluoro-8-methylquinolin-5-yl)-5-methylpiperidin-3-yl]-2-(4-hydroxy-1-methylpiperidin-4-yl)acetamide] are under 0.075 µM and under 0.075 µM.
Regarding `CN(C)CCC(=O)N[C@@H]1C[C@H](C(F)(F)F)CN(c2ccc(C#N)c3nccnc23)C1` [Example 75], the IC50 on TLR8 and at TLR7 was under 0.075 µM throughout.
As for `C[C@H]1C[C@@H](n2ccnc2)CN(c2ccc(C#N)c3ncccc23)C1` [Example 158, 5-[(3R,5S)-3-(1H-imidazol-1-yl)-5-methylpiperidin-1-yl]quinoline-8-carbonitrile], the IC50 on TLR8 was under 0.075 µM; at TLR7, over 0.15 µM.
As to `C[C@H]1C[C@@H](NC(=O)C2(N)CCCNC2)CN(c2ccc(C(F)(F)F)c3ncccc23)C1` (stereo partly drawn) [Example 180, 3-Amino-piperidine-3-carboxylic acid [(3R,5S)-5-methyl-1-(8-trifluoromethyl-quinolin-5-yl)-piperidin-3-yl]-amide], the IC50 at TLR8 and on TLR7 was under 0.075 µM each time.
Consider `C[C@@H]1CN(c2ccc(C#N)c3nccnc23)C[C@H](CSCC(O)CO)O1` (stereo partly drawn) [Example 227, 8-[(2R,6R)-2-(2,3-Dihydroxy-propylsulfanylmethyl)-6-methyl-morpholin-4-yl]-quinoxaline-5-carbonitrile], for which the values for the IC50 at TLR8 and on TLR7 were under 0.075 µM and 0.075 to 0.15 µM, respectively.
For `Cc1nnc([C@H]2CN(c3ccc(C#N)c4nccnc34)C[C@@H](C)O2)o1` (racemic) [Example 212, 8-[(2R,6R)-2-Methyl-6-(5-methyl-[1,3,4]oxadiazol-2-yl)-morpholin-4-yl]-quinoxaline-5-carbonitrile], the IC50 on TLR8 is under 0.075 µM; at TLR7 it was over 0.15 µM.
The corresponding values for `CC(C(=O)N[C@@H]1C[C@H](C)CN(c2cnc(C#N)c3nccnc23)C1)N1CCN(C)CC1` (stereo partly drawn) [Example 190, N-[(3R,5S)-1-(5-Cyano-pyrido[3,4-b]pyrazin-8-yl)-5-methyl-piperidin-3-yl]-2-(4-methyl-piperazin-1-yl)-propionamide] are under 0.075 µM and 0.075 to 0.15 µM.
The corresponding values for `CCN(CC)CCO[C@@H]1C[C@H](C)CN(c2ccc(C#N)c3nccnc23)C1` [Example 6, 8-[(3R,5S)-3-[2-(diethylamino)ethoxy]-5-methylpiperidin-1-yl]quinoxaline-5-carbonitrile] are under 0.075 µM and under 0.075 µM.
With `CN1CC[C@](F)(CNC(=O)[C@H]2CN(c3ccc(C#N)c4nccnc34)C[C@@H](C(F)(F)F)O2)C1` (single isomer, unassigned) [Example 357], the IC50 on TLR8 and at TLR7 was under 0.075 µM each time.
In the case of `N#Cc1ccc(N2C[C@@H](C(=O)N[C@H]3CNC[C@H]3F)O[C@@H](C(F)(F)F)C2)c2nccnc12` (single isomer, unassigned) [Example 304], the IC50 at TLR8 and on TLR7 was under 0.075 µM in each case.
